From PubChem BioAssay (NCI)
Values joined by “and” are separate entries in the source; they are usually repeats but may differ in a detail not shown here. Equal entries are not always repeated.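 Values below derive from 48-hour exposures of cells grown in 96-well plates, with endpoints linearly interpolated between the two concentrations bracketing the appropriate inhibition level. The concentration for 50% growth inhibition is given as GI50. TGI denotes the concentration required for complete inhibition of growth.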

Legend:
Experiment in all cases: growth of human tumour cells (NCI), 48 h
LOX IMVI melanoma = system: LOX IMVI melanoma
SNB-75 CNS = system: SNB-75 CNS
T-47D breast = system: T-47D breast
UACC-257 melanoma = system: UACC-257 melanoma
NCI-H226 lung = system: NCI-H226 lung
NCI-H23 lung = system: NCI-H23 lung
OVCAR-5 ovarian = system: OVCAR-5 ovarian
UO-31 renal = system: UO-31 renal

Structure (SMILES)	TGI (LOX IMVI melanoma)	TGI (SNB-75 CNS)	TGI (T-47D breast)	TGI (UACC-257 melanoma)	TGI (NCI-H226 lung)	TGI (NCI-H23 lung)	TGI (OVCAR-5 ovarian)	GI50 (LOX IMVI melanoma)	GI50 (SNB-75 CNS)	GI50 (T-47D breast)	GI50 (UACC-257 melanoma)	GI50 (UO-31 renal)	TGI (UO-31 renal)	GI50 (NCI-H226 lung)	GI50 (NCI-H23 lung)	GI50 (OVCAR-5 ovarian)
OCc1ccn2c1[C@@H](O)CC2	> 100 µM	> 100 µM	> 100 µM	> 100 µM	> 100 µM	> 100 µM	> 100 µM									
Cn1cc(C2=C(c3cccc(Br)c3)C(=O)NC2=O)c2ccccc21	> 25 µM	> 25 µM	> 25 µM	> 25 µM	> 25 µM	> 25 µM	> 25 µM	12 µM	1.18 µM	8.11 µM	> 19.8 µM	6.42 µM	> 25 µM	10.4 µM	12.5 µM	> 25 µM
N#CC1=C(N)Oc2cc(O)ccc2C1c1cccc2ccccc12 (stereo unspecified)	35.4 µM	32.9 µM	58.7 µM	30.1 µM	82.3 µM	22.6 µM	28.8 µM	14.8 µM	14.1 µM	17.2 µM	14.1 µM	12.3 µM	25.8 µM	24.2 µM	10.2 µM	14.6 µM
COc1cc2c3c(n(CCCOC(=O)C(F)(F)F)c(=O)c2cc1OC)-c1cc2c(cc1C3=O)OCO2	0.0371 µM	> 100 µM	> 28.2 µM		0.161 µM	< 0.045 µM	43.8 µM	< 0.01 µM	0.0726 µM			< 0.01 µM	> 100 µM	< 0.0151 µM	< 0.0158 µM	0.14 µM
O=C(Nc1ccc(-n2ccc3c(NC(=O)c4ccccc4)nccc32)cc1)Nc1ccc(Cl)c(Cl)c1	2.28 µM	2.34 µM	5.33 µM	4.52 µM	97.7 µM	28.6 µM	32.9 µM	0.503 µM	0.489 µM	2.03 µM	1.96 µM	1.6 µM	4.1 µM	15.9 µM	5.2 µM	3.52 µM
COc1ccc(O)c(C(=O)c2ccc(C(=O)N[C@H]3CCCNC[C@@H]3NC(=O)c3ccncc3)cc2)c1F	> 25 µM		> 25 µM	> 25 µM	> 25 µM	> 25 µM	> 25 µM	7.38 µM	0.0135 µM	0.463 µM	> 25 µM	> 18.9 µM	> 25 µM	> 25 µM	2.63 µM	> 25 µM
CC(C)(S)C(N)C(=O)O (stereo unspecified)	> 5000 µM	> 5000 µM	2680 µM and > 100 µM	> 5000 µM	> 5000 µM	> 5000 µM	> 5000 µM	1590 µM	> 5000 µM	1170 µM	4860 µM	> 5000 µM	> 5000 µM	> 5000 µM	1510 µM	> 5000 µM
Cc1nc2sc3c(c2c(=O)[nH]1)CCCC3	> 100 µM	> 100 µM	> 100 µM	> 100 µM	> 100 µM	> 100 µM	> 100 µM						68.2 µM			
CCn1c(=O)c2c(=O)c3c4c(oc3oc2c2ccccc21)C(=O)c1ccccc1C4=O	> 100 µM	> 53.3 µM	2.87 µM	> 100 µM	> 100 µM	> 100 µM	> 100 µM		> 20.8 µM	0.372 µM	> 100 µM	> 100 µM	> 100 µM	> 100 µM	> 48.9 µM	> 100 µM
NC(=O)OCCn1cc(-c2nc(-c3c[nH]c4ncccc34)cs2)c2ccccc21	4.11 µM			7.88 µM	12.5 µM	> 100 µM	43.8 µM	1.55 µM			2.08 µM	0.621 µM	4.65 µM	1.68 µM	2.02 µM	2.21 µM
CCCOc1ccc2sc(NC(=O)OC)nc2c1	> 100 µM	> 100 µM	> 100 µM	> 100 µM	> 100 µM	> 100 µM	> 100 µM	5.66 µM	2.58 µM	2.94 µM	> 100 µM	6.07 µM	> 100 µM	> 100 µM	5.77 µM	> 100 µM
CN(CCO)c1ccc(N2Cc3ccccc3OC3=C2C(=O)c2c(O)ccc(O)c2C3=O)cn1	0.33 µM	1.8 µM	0.577 µM	0.791 µM	2.95 µM	0.834 µM	0.997 µM	0.114 µM	0.348 µM	0.176 µM	0.277 µM	0.0971 µM	0.304 µM	0.854 µM	0.263 µM	0.325 µM
